In one data set the target is T1, Human PDE-4d (Homo sapiens, UniProt Q08499).
T1 construct: The catalytic domain of PDE4d was cloned to pGEX4T3 (APBiotech) as GST fusion expression vector; GST (N); made in house; host or cells: E. coli BL21, DE3
Nature of the data set: Inhibition of PDE-4 activity ([3H]cAMP hydrolysis, recombinant catalytic domain). It counts as biochemical. The note with it: for IC50: PDE4d 1 nM, cAMP 250 nM, 34° C., 45 minutes, read-out: IC50 against PDE-4 enzyme. How it is done: Experiment of inhibiting PDE-4 activity was carried out by modifying the method of Loughney (Loughney et al., Journal of Biological Chemistry, 1996, 271(2), 796-806). Human PDE-4d prepared by means of gene recombination technology was used as PDE-4d
The catalytic domain of PDE4d was cloned to pGEX4T3 (APBiotech) as GST fusion expression vector, and then PDE4d gene was transformed to E. coli BL21, DE3. The strain was cultured at 37° C. in LB medium, and when OD reached about 0.3˜0.5, the temperature was lowered to 18° C. to induce expression of PDE4d by using 0.5 mM IPTG. After 15 hours from induction of the expression, cells with PDE4d expressed were recovered. The cells were suspended in a buffer solution (50 mM Tris, pH 8.0, 0.4M NaCl, 5 mM DTT), and crushed, centrifuged and purified. The columns used for the purification were Q-cephalose (APBiotech), Glutanione-cephalose (APBiotech) and Superdex200 gel permeation chromatography (APBiotech), in this order.
In order to measure the ability of individual compound to inhibit PDE4d activity, PDE4d 1 nM and cAMP (Sigma) 250 nM as substrate were added to the reaction buffer (50 mM Tris-HCl (pH 7.5) and 4 mM MgCl2), and individual compound obtained from Example 1 was added in a concentration from 1 to 50 μM thereto, and the mixture was reacted at 34° C. for 45 minutes. Total reaction solution was 60 μl. As to cAMP, a mixture with the ratio of [^3H]cAMP (Amersham, 1 μCi/μl) to cAMP (hot:cold, that is, isotope:non-isotope) being 1:200 was used. Then, the reaction was quenched by heating at 95° C. for 2 minutes. After cooling the mixture for 3 minutes, 1 mg/ml of Snake Venome (Sigma V0376) (30 μl) was added thereto. After reacting at 34° C. for 30 minutes, 30 μl of the reaction mixture was added to 250 μl of DOWEX 1×2-100 ion exchange resin (Aldrich, previously mixed with distilled water in a ratio of 1:1.6) by portions, and the mixture was vigorously stirred for 2 minutes. After settling the resin down, the supernatant (130 μl) was added to 2 ml of scintillation cocktail (Packard), and the mixture was thoroughly mixed, and then measured by using beta-counter. With respect to the enzyme activity of control group (experiment carried out without adding compound of Chemical Formula (1)), the concentration of each test compound to inhibit 50% of enzyme activity was determined as IC50.

Data set [1] deals with OVA-sensitized C57BL/6J mice. The experiment in a line: Airway hyper-responsiveness (Penh, whole body plethysmography) after methacholine in OVA-sensitized mice. The note with it: oral, 100 mg/kg; versus Roflumilast 100 mg/kg oral. The format is in vivo, mouse. How it is done:
(§1) For animal test in vivo, 8-9 week old male C57BL/6J mice having body weight of 20-25 g were used as the test animal. For sensitization and challenge of airway and lung by ovalbumin (OVA), OVA mixed with Al(OH)3 was administered intraperitoneally to cause first sensitization, and second sensitization after 10 days from the first sensitization. After 6 days from the second sensitization, the animals were inhaled with 5% OVA via nebulizer for 3 days. Administration of medicine to the sensitized mice was carried out intraorally (po), three times one hour before every inhalation of OVA. To the control group, 0.5% CMC was administered.
The analysis of airway hyper-responsiveness (AHR) was carried out by using a whole body plethysmographer with a living animal.
After 48 hours from inhalation of OVA, the animal was inhaled with methacholine (Mch) by means of nebulizer. Responsiveness of airway due to Mch was evaluated by enhanced pause (Penh) value on capability of respiration through airway by means of whole body plethysmography, and compared with control medicine.

Data set [2] deals with OVA-sensitized C57BL/6J mice. Nature of the data set: Eosinophil peroxidase activity (EPO activity) in bronchoalveolar washing of OVA-sensitized mice. The note with it: oral, 5, 50, 100 and 300 mg/kg. The format is in vivo, mouse. How it is done:
as §1
In order to observe cell activity and cell constitution in the washing solution of mouse bronchus alveolus, the animal was inhaled with OVA. After 62 hours, the mouse was anesthetized and the cervicothoracic region was open. A tube containing 0.8 ml of PBS was inserted to the bronchus, and PBS was injected. After massaging the chest for about 30 seconds, cell suspension was obtained from the lung. The cells obtained were centrifuged with 400×g. […] For the measurement of EPO activity, the cell suspension ([…]) was reacted with 0.1 mM OPD, 0.05 M Tris-HCl (pH 8.0), Triton X-100 and 1 mM H2 O2, and then absorbance at 492 nm was measured.

Another data set concerns PDE-4. The note with it: background art; read-out: IC50 of inhibiting PDE-4; cited from earlier work.
The next data set deals with ferrets. Nature of the data set: Test of side-effect related to emesis in ferrets. The note with it: ferret, 7 mg/kg. The format is in vivo. How it is done:
Male ferrets having the body weight of about 1.5˜2 kg, purchased from Marshal, were classified into the groups: control, yohimbine, #102-500 mg/kg and #102-1000 mg/kg treated groups. For three animals in each group, the medicine dissolved in 0.5% CMC at a concentration of 500 and 1000 mg/kg was orally administered. During 3 hours after then, the number of vomiting for each animal, and the number of animals showing salivation and diarrhea were measured by visual observation.

T1 sequence (Q08499 386-715 limits assumed): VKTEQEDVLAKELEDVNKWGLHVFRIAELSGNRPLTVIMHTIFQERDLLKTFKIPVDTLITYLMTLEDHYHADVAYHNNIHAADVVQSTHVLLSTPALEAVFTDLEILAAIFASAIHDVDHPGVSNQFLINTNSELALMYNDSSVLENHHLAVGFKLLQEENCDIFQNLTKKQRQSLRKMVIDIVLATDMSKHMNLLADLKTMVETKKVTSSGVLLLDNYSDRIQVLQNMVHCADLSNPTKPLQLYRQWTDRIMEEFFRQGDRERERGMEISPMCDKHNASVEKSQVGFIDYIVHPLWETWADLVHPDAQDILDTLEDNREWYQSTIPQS

A word on the IC50: it is the midpoint of a concentration-inhibition curve. Turning to `[O-][n+]1cccc(-c2nc3nccc(-c4ccc(OC(F)F)c(OCC5CC5)c4)n3n2)c1` [Compound 102, 3-[7-{3-(cyclopropylmethoxy)-4-(difluoromethoxy)phenyl}-[1,2,4]triazolo[1,5-a]pyrimidine-2-yl]-pyridine-N-oxide], the IC50 at Human PDE-4d worked out at 74 nM. For the same compound, the “effect of treating asthma: degree of airway contraction by enhanced pause (Penh) value” in data set [1] is listed as “far superior effect of treating asthma to the control compound, Roflumilast”. For the same compound, in data set [2], the “eosinophil peroxidase activity (EPO activity)” value is “excellent effect”.
Consider `FC(F)Oc1ccc(-c2ccnc3nc(-c4cccc(C(F)(F)F)c4)nn23)cc1OCC1CC1` [Compound 128, 7-[3-(Cyclopropylmethoxy)-4-(difluoromethoxy)phenyl]-2-(3-trifluoromethylphenyl)-[1,2,4]triazolo[1,5-a]pyrimidine], for which the IC50 at Human PDE-4d is 30 nM.
Regarding `COc1ccc(-c2ccnc3nc(-c4cccc(C#N)c4)nn23)cc1OC1CCCC1` [Compound 129, 7-[3-(Cyclopentoxy)-4-methoxyphenyl]-2-(3-cyanophenyl)-[1,2,4]triazolo[1,5-a]pyrimidine], the IC50 on Human PDE-4d is 13 nM.
With `[O-][n+]1cccc(-c2nc3nccc(-c4ccc(OC(F)F)c(OC(F)F)c4)n3n2)c1` [Compound 130, 3-[7-(3,4-Bis-difluoromethoxyphenyl)-[1,2,4]triazolo[1,5-a]pyrimidine-2-yl]-pyridine-N-oxide], at Human PDE-4d, the IC50 is 250 nM.
Regarding `O=C(O)c1cccc(-c2nc3nccc(-c4ccc(OC(F)F)c(OCC5CC5)c4)n3n2)c1` [Compound 131, 3-[7-{3-(Cyclopropylmethoxy)-4-(difluoromethoxy)phenyl}-[1,2,4]triazolo[1,5-a]pyrimidin-2-yl]benzoic acid], the IC50 at Human PDE-4d amounted to 20 nM. Also, on Human PDE-4d (comment on Table 2), the “activity on inhibiting PDE-4 (in words)” value was “excellent activity on inhibiting PDE-4”.
In the case of `Cc1cccc(-c2nc3nccc(-c4ccc(OC(F)F)c(OCC5CC5)c4)n3n2)c1` [Compound 132, 7-[3-(Cyclopropylmethoxy)-4-(difluromethoxy)phenyl]-2-m-tolyl-[1,2,4]triazolo[1,5-a]pyrimidine], the IC50 on Human PDE-4d was 30 nM.
Still for that read-out and setting: with `Cc1cc(C)cc(-c2nc3nccc(-c4ccc(OC(F)F)c(OCC5CC5)c4)n3n2)c1` [Compound 133, 7-[3-(Cyclopropylmethoxy)-4-(difluoromethoxy)phenyl]-2-(3,5-dimethylphenyl)-[1,2,4]triazolo[1,5-a]pyrimidine] the figure was 42 nM; with `COc1cc(-c2nc3nccc(-c4ccc(OC(F)F)c(OCC5CC5)c4)n3n2)ccc1C` [Compound 134, 7-[3-(Cyclopropylmethoxy)-4-(difluoromethoxy)phenyl]-2-(3-methoxy-4-methylphenyl)-[1,2,4]triazolo[1,5-a]pyrimidine], 40 nM.
For the compound `COc1ccc(-c2ccnc3nc(-c4cccnc4)nn23)cc1OC1CCCC1` [Compound 135, 7-[3-(Cyclopentoxy)-4-methoxyphenyl]-2-(3-pyridyl)-[1,2,4]triazolo[1,5-a]pyrimidine], the half-maximal inhibitory concentration (IC50) on Human PDE-4d amounted to 50 nM.
On the same count and under the same terms, in the case of `Cc1ccc(-c2nc3nccc(-c4ccc(OC(F)F)c(OCC5CC5)c4)n3n2)c(C)c1` [Compound 136, 7-[3-(Cyclopropylmethoxy)-4-(difluoromethoxy)phenyl]-2-(2,4-dimethylphenyl)-[1,2,4]triazolo[1,5-a]pyrimidine] it was 60 nM; in that of `O=C(O)c1ccc(-c2nc3nccc(-c4ccc(OC(F)F)c(OCC5CC5)c4)n3n2)cn1` [Compound 137, 5-[7-{3-(cyclopropylmethoxy)-4-(difluoromethoxy)phenyl}-[1,2,4]triazolo[1,5-a]pyrimidin-2-yl]pyridine-2-carboxylic acid], 200 nM; in that of `COC(=O)c1ccc(-c2nc3nccc(-c4ccc(OC(F)F)c(OCC5CC5)c4)n3n2)cn1` [Compound 138, 5-[7-{3-(cyclopropylmethoxy)-4-(difluoromethoxy)phenyl}-[1,2,4]triazolo[1,5-a]pyrimidin-2-yl]pyridine-2-carboxylic acid methyl ester], 180 nM.
The same measure, in the same setting: in the case of `NC(=O)c1ccc(-c2nc3nccc(-c4ccc(OC(F)F)c(OCC5CC5)c4)n3n2)cn1` [Compound 139, 5-[7-{3-(cyclopropylmethoxy)-4-(difluoromethoxy)phenyl}-[1,2,4]triazolo[1,5-a]pyrimidin-2-yl]pyridine-2-carboxamide] it was 46 nM.
For the compound `CSc1ccc(-c2nc3nccc(-c4ccc(OC(F)F)c(OCC5CC5)c4)n3n2)cc1` [Compound 140, 7-[3-(Cyclopropylmethoxy)-4-(difluoromethoxy)phenyl]-2-(4-methylthiophenyl)-[1,2,4]triazolo[1,5-a]pyrimidine], the IC50 on Human PDE-4d was determined as 35 nM.
Take `O=C(Nc1c(Cl)cncc1Cl)c1ccc(OC(F)F)c(OCC2CC2)c1` [Roflumilast]: in the data set on PDE-4, the IC50 was 0.8 nM.
In the case of `COC(=O)[C@@H]1[C@H]2C[C@H]3c4[nH]c5ccccc5c4CCN3C[C@@H]2CC[C@@H]1O` [yohimbine], the “animals showing salivation and diarrhea” value in the data set on ferrets was determined as 66%. For the same compound, the “vomiting symptoms (number of vomiting per animal)” value in the data set on ferrets (observed in all ferrets used) is given as “average twice”.

Source of the values: patent US8143262B2, “7-(3′,4′-Dialkoxyphenyl)[1,2,4]-triazolo[1,5-A]pyrimidine compounds, process for preparing thereof, and pharmaceutical composition for treating or preventing asthma, chronic obstructive pulmonary disease, arthritis, atopic dermatitis, tumor and degenerative brain diseases comprising the same” (Korea Research Institute of Chemical Technology, priority 2007, dated 2012).
